Source: PMC5361811, “Inhibition of human endogenous retrovirus-K by antiretroviral drugs” (Retrovirology, 2017)

System: T1, HERV-K protease
T1 construct: gene pro; retroviral aspartic protease of consensus HERV-K genome (from Gag-Pro-Pol polyprotein; synthetic, plasmid pCD-HK/Rev), acting in transfected HeLa or 293 cells and virions; homodimer by homology
Assay: virus production in transfected HeLa cells, RT activity in supernatant by PERT
Assay type: cell-based
Conditions: Homo sapiens, read-out: HERV-K IC50 (μM)
Source text: virus production in transfected HeLa cells, RT activity in supernatant by PERT on HERV-K protease

| SMILES | IC50 [µM] |
| --- | --- |
| Cc1cccc(C)c1OCC(=O)N[C@@H](Cc1ccccc1)[C@@H](O)C[C@H](Cc1ccccc1)NC(=O)[C@H](C(C)C)N1CCCNC1=O [Lopinavir] | 0.034 |
| CC(C)CN(C[C@@H](O)[C@H](Cc1ccccc1)NC(=O)O[C@H]1CO[C@H]2OCC[C@H]21)S(=O)(=O)c1ccc(N)cc1 [Darunavir] | 0.029 |
